Reference: US20220339291A1, “ANTIBODY-DRUG CONJUGATES THAT TARGET DLK1 AND USES THEREOF” (LegoChem Biosciences, Inc., priority 2019, published 2022)
Numbering of substitutions follows the chain as printed. Like-named read-outs stand apart in the source and are kept apart here. Non-standard residues stand in square brackets, D forms with d. Residues, ends and D or L forms follow the SMILES beside them. Dolaproine = CO[C@@H]([C@@H]1CCCN1)[C@@H](C)C(=O)O; Dil = CC[C@H](C)[C@H](NC)[C@@H](CC(=O)O)OC; NMeV = CN[C@H](C(=O)O)C(C)C

Key:
[1] = test system: MIA-PaCa2 (DLK1 negative or normal); test: In vitro cytotoxicity (cell proliferation inhibition, SRB dye), DLK1-negative cells; format: cell-based, human
Description: (§1) The cancer cell line cell proliferation inhibition activity of the drugs stated in Table 3 below and the ADCs prepared in <Embodiment 3> above was measured. For this purpose, commercially available human pancreatic cancer cell line MIA-PaCa2 (DLK1 negative or normal) and MIA-PaCa-2-DLK1 over-expressing cell line were used. As the drug, MMAF-OMe was used as the ADC, and the ADCs of Table 2 were used. In a 96-well plate, each well was seeded with 4,000 to 5,000 of the respective cancer cell lines for the 72-hour treatment group, 2,000 to 3,000 cells for the 96-hour treatment group, and 800 to 1,000 cells for the 168-hour treatment group. After culturing for 24 hours, they were treated with the drug and ADC at a concentration of 0.0015 to 10.0 nM (serially diluted threefold). 72, 96 and 168 hours later, respectively, the number of live cells was measured using SRB (Sulforhodamine B) dye.

[2] = test system: MIA-PaCa-2-DLK1 over-expressing cell line; test: In vitro cytotoxicity (cell proliferation inhibition, SRB dye), DLK1 over-expressing cells; format: cell-based, human; conditions: MIA-PaCa2 DLK1 positive
Description: as §1

[3] = biological target: T1, DLK1 over-expressed on MIA-PaCa-2 cells (UniProt P80370 24-383, limits assumed); test: cell-based or functional assay
T1 sequence (looked up): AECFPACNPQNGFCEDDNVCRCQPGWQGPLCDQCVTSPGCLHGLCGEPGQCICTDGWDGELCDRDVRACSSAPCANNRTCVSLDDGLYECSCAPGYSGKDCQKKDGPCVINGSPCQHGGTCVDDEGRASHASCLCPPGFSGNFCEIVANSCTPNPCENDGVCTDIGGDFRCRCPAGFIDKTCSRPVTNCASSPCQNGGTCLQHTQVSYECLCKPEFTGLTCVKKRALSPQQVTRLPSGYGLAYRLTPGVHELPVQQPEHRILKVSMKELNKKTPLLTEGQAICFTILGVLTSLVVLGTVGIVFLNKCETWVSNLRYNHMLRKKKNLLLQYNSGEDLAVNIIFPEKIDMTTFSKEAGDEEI

[4] = test system: cells where DLK1 is overexpressed; conditions: confirmed in Korean Patent Application No. 10-2018-0107639; cited from earlier work

CC[C@H](C)[C@@H]([C@@H](CC(=O)N1CCC[C@H]1[C@H](OC)[C@@H](C)C(=O)N[C@@H](Cc1ccccc1)C(=O)OC)OC)N(C)C(=O)[C@@H](NC(=O)[C@@H](NC)C(C)C)C(C)C [MMAF-OMe] (H-[NMeV]V[Dil][Dolaproine]F-OMe)
IC50 ([1]; 72 hr treatment, read-out: IC50 MIA-PaCa2-DLK1 negative 72 hr): 0.41 nM | IC50 ([1]; 96 h treatment, read-out: IC50 MIA-PaCa2-DLK1 negative 96 h): 0.12 nM | IC50 ([1]; 168 hr treatment, read-out: IC50 MIA-PaCa2-DLK1 negative 168 hr): 0.12 nM | IC50 ([2]; 72 hr treatment, read-out: IC50 MIA-PaCa2-DLK1 positive 72 hr): 0.3 nM | IC50 ([2]; 96 h treatment, read-out: IC50 MIA-PaCa2-DLK1 positive 96 h): 0.13 nM | IC50 ([2]; 168 hr treatment, read-out: IC50 MIA-PaCa2-DLK1 positive 168 hr): 0.06 nM

B1: ADC6 (18A5 conjugated to Compound 6) (other)
VH: QVQLVQSGGAVVQPGHSLRLSCEASGFKFKDYGMHWVRQAPGKGLEWLAVISHDGRNKNYADSVKGRLTISRDNSKNTLSFQMNSLRAEDTAVYYCVRDWSYAFDIWGQGTLVTVSS
VL: DIQMTQSPSFLSASVGDRVNITCRASQDISRRLAWYQQKPGKAPKLLIYGAASLQSAVASRFSGSGSGTEFTLTISSLQPEDFANYYCQQIYTTPLTFGGGTKVEIK
IC50 (nM), cell proliferation inhibition (SRB), MIA-PaCa2-DLK1 positive, 168 hr [3]: 0.21 nM

B2: 18A5_AM_1A12: 18A5 mutant anti-DLK1 antibody, heavy chain SEQ ID NO. 127, light chain SEQ ID NO. 128 (antibody, V domains shown)
VH: B1 VH with A10G, H16G, E23A
VL: DIQMTQSPSFLSASVGDRVTITCRASHDISSSLAWYQQKSGKAPKLLIYSASNLKSGVPSRFSGSGSGTDFSLTISSLQPEDFATYYCQQSYTTVLTFGGGTKLEIK
binding to cells where DLK1 is overexpressed [4]: capable of binding to cells where DLK1 is overexpressed

B3: 18A5_LS_1A10: 18A5 mutant anti-DLK1 antibody, heavy chain SEQ ID NO. 101, light chain SEQ ID NO. 126 (antibody, V domains shown)
VH: B1 VH
VL: DIQMTQSPSSLSASLGDRVTITCRASQGISSALAWYQQKPGKAPKLLIYAASSLQSGVPSRFSGSGSGTDFTLTINSLQPEDFATYYCQQSYTTPLTFGGGTKVEIK
binding to cells where DLK1 is overexpressed [4]: capable of binding to cells where DLK1 is overexpressed

B4: 18A5: anti-DLK1 human monoclonal antibody, heavy chain SEQ ID NO. 101, light chain SEQ ID NO. 102 (antibody, V domains shown)
VH: B1 VH
VL: B1 VL
binding to cells where DLK1 is overexpressed [4]: capable of binding to cells where DLK1 is overexpressed

B5: 27F7: anti-DLK1 human monoclonal antibody, heavy chain SEQ ID NO. 109, light chain SEQ ID NO. 110 (antibody, V domains shown)
VH: QMQLVESGGGLVKPGGSLTLSCDATGFNFGSYYMNWVRQAPGKGLEWLAHISSTGRTIYYADSVKGRFTISRDNAKSSLDLQMNSLRAEDTAVYYCARDQGYPFGMDVWGHGTTVTVSS
VL: QLVLTQPSSVSGAPGQRVTISCTGSSSNIGAGYDVDWYQQLPGTAPKLLIYGNTNRPSGVPDRFSGSKSGTSASLAITGLQAEDDSDYYCQSYDSSLSAWVFGGGTKLTVL
binding to cells where DLK1 is overexpressed [4]: capable of binding to cells where DLK1 is overexpressed
